Laboratory results: ChEMBL document CHEMBL1649545, “Efficacy of triazoles in a murine disseminated infection by Candida krusei” (2009)
Calls of active or inactive are those of the source.

Legend:
Pichia kudriavzevii [1] = experiment: Antifungal activity against 5 x 10^7 CFU Candida krusei FMR9728 infected OF1 mouse disseminated infection model assessed as prolongation of mouse survival at 50 mg/kg/day, po for 5 days administered 24 hrs postinfection measured daily for 15 days; format: functional, organism-based
Pichia kudriavzevii [2] = experiment: Antifungal activity against 5 x 10^7 CFU Candida krusei FMR9728 infected OF1 mouse disseminated infection model assessed as prolongation of mouse survival at 100 mg/kg/day, po for 5 days administered 24 hrs postinfection measured daily for 15 days; format: functional, organism-based
Pichia kudriavzevii [3] = experiment: Antifungal activity against 5 x 10^7 CFU Candida krusei FMR9729 infected OF1 mouse disseminated infection model assessed as prolongation of mouse survival at 50 mg/kg/day, po for 5 days administered 24 hrs postinfection measured daily for 15 days; format: functional, organism-based
Pichia kudriavzevii [4] = experiment: Antifungal activity against 5 x 10^7 CFU Candida krusei FMR9729 infected OF1 mouse disseminated infection model assessed as prolongation of mouse survival at 100 mg/kg/day, po for 5 days administered 24 hrs postinfection measured daily for 15 days; format: functional, organism-based
Pichia kudriavzevii [5] = experiment: Antifungal activity against Candida krusei FMR9728 infected OF1 mouse disseminated infection model assessed as reduction in kidney tissue fungal burden at 50 mg/kg/day, po for 5 days administered 24 hrs postinfection measured after 24 hrs post treatment relative to control; format: functional, organism-based
Pichia kudriavzevii [6] = experiment: Antifungal activity against Candida krusei FMR9728 infected OF1 mouse disseminated infection model assessed as reduction in kidney tissue fungal burden at 100 mg/kg/day, po for 5 days administered 24 hrs postinfection measured after 24 hrs post treatment relative to control; format: functional, organism-based
Pichia kudriavzevii [7] = experiment: Antifungal activity against Candida krusei FMR9728 infected OF1 mouse disseminated infection model assessed as reduction in spleen tissue fungal burden at 50 mg/kg/day, po for 5 days administered 24 hrs postinfection measured after 24 hrs post treatment relative to control; format: functional, organism-based
Pichia kudriavzevii [8] = experiment: Antifungal activity against Candida krusei FMR9728 infected OF1 mouse disseminated infection model assessed as reduction in spleen tissue fungal burden at 100 mg/kg/day, po for 5 days administered 24 hrs postinfection measured after 24 hrs post treatment relative to control; format: functional, organism-based
Pichia kudriavzevii [9] = experiment: Antifungal activity against Candida krusei FMR9729 infected OF1 mouse disseminated infection model assessed as reduction in kidney tissue fungal burden at 50 mg/kg/day, po for 5 days administered 24 hrs postinfection measured after 24 hrs post treatment relative to control; format: functional, organism-based
Pichia kudriavzevii [10] = experiment: Antifungal activity against Candida krusei FMR9729 infected OF1 mouse disseminated infection model assessed as reduction in kidney tissue fungal burden at 100 mg/kg/day, po for 5 days administered 24 hrs postinfection measured after 24 hrs post treatment relative to control; format: functional, organism-based
Pichia kudriavzevii [11] = experiment: Antifungal activity against Candida krusei FMR9729 infected OF1 mouse disseminated infection model assessed as reduction in spleen tissue fungal burden at 50 mg/kg/day, po for 5 days administered 24 hrs postinfection measured after 24 hrs post treatment relative to control; format: functional, organism-based
Pichia kudriavzevii [12] = experiment: Antifungal activity against Candida krusei FMR9729 infected OF1 mouse disseminated infection model assessed as reduction in spleen tissue fungal burden at 100 mg/kg/day, po for 5 days administered 24 hrs postinfection measured after 24 hrs post treatment relative to control; format: functional, organism-based
Pichia kudriavzevii [13] = experiment: Antifungal activity against Candida krusei FMR9728 by M27-A2 broth dilution method; format: functional
Pichia kudriavzevii [14] = experiment: Antifungal activity against Candida krusei FMR9729 by M27-A2 broth dilution method; format: functional
Pichia kudriavzevii [15] = experiment: Antifungal activity against 5 x 10^7 CFU Candida krusei FMR9728 infected OF1 mouse disseminated infection model assessed as prolongation of mouse survival at 60 mg/kg/day, po for 5 days administered 24 hrs postinfection measured daily for 15 days; format: functional, organism-based
Pichia kudriavzevii [16] = experiment: Antifungal activity against 5 x 10^7 CFU Candida krusei FMR9729 infected OF1 mouse disseminated infection model assessed as prolongation of mouse survival at 10 mg/kg/day, iv for 5 days administered 24 hrs postinfection measured daily for 15 days; format: functional, organism-based
Pichia kudriavzevii [17] = experiment: Antifungal activity against 5 x 10^7 CFU Candida krusei FMR9729 infected OF1 mouse disseminated infection model assessed as prolongation of mouse survival at 20 mg/kg/day, iv for 5 days administered 24 hrs postinfection measured daily for 15 days; format: functional, organism-based
Pichia kudriavzevii [18] = experiment: Antifungal activity against 5 x 10^7 CFU Candida krusei FMR9729 infected OF1 mouse disseminated infection model assessed as prolongation of mouse survival at 40 mg/kg/day, po for 5 days administered 24 hrs postinfection measured daily for 15 days; format: functional, organism-based
Pichia kudriavzevii [19] = experiment: Antifungal activity against 5 x 10^7 CFU Candida krusei FMR9729 infected OF1 mouse disseminated infection model assessed as prolongation of mouse survival at 60 mg/kg/day, po for 5 days administered 24 hrs postinfection measured daily for 15 days; format: functional, organism-based
Pichia kudriavzevii [20] = experiment: Antifungal activity against Candida krusei FMR9728 infected OF1 mouse disseminated infection model assessed as reduction in kidney tissue fungal burden at 10 mg/kg/day, iv for 5 days administered 24 hrs postinfection measured after 24 hrs post treatment relative to control; format: functional, organism-based
Pichia kudriavzevii [21] = experiment: Antifungal activity against Candida krusei FMR9728 infected OF1 mouse disseminated infection model assessed as reduction in kidney tissue fungal burden at 20 mg/kg/day, iv for 5 days administered 24 hrs postinfection measured after 24 hrs post treatment relative to control; format: functional, organism-based
Pichia kudriavzevii [22] = experiment: Antifungal activity against Candida krusei FMR9728 infected OF1 mouse disseminated infection model assessed as reduction in kidney tissue fungal burden at 40 mg/kg/day, po for 5 days administered 24 hrs postinfection measured after 24 hrs post treatment relative to control; format: functional, organism-based
Pichia kudriavzevii [23] = experiment: Antifungal activity against Candida krusei FMR9728 infected OF1 mouse disseminated infection model assessed as reduction in kidney tissue fungal burden at 60 mg/kg/day, po for 5 days administered 24 hrs postinfection measured after 24 hrs post treatment relative to control; format: functional, organism-based
Pichia kudriavzevii [24] = experiment: Antifungal activity against Candida krusei FMR9728 infected OF1 mouse disseminated infection model assessed as reduction in spleen tissue fungal burden at 10 mg/kg/day, iv for 5 days administered 24 hrs postinfection measured after 24 hrs post treatment relative to control; format: functional, organism-based
Pichia kudriavzevii [25] = experiment: Antifungal activity against Candida krusei FMR9728 infected OF1 mouse disseminated infection model assessed as reduction in spleen tissue fungal burden at 20 mg/kg/day, iv for 5 days administered 24 hrs postinfection measured after 24 hrs post treatment relative to control; format: functional, organism-based
Pichia kudriavzevii [26] = experiment: Antifungal activity against Candida krusei FMR9728 infected OF1 mouse disseminated infection model assessed as reduction in spleen tissue fungal burden at 40 mg/kg/day, po for 5 days administered 24 hrs postinfection measured after 24 hrs post treatment relative to control; format: functional, organism-based
Pichia kudriavzevii [27] = experiment: Antifungal activity against Candida krusei FMR9728 infected OF1 mouse disseminated infection model assessed as reduction in spleen tissue fungal burden at 60 mg/kg/day, po for 5 days administered 24 hrs postinfection measured after 24 hrs post treatment relative to control; format: functional, organism-based
Pichia kudriavzevii [28] = experiment: Antifungal activity against Candida krusei FMR9729 infected OF1 mouse disseminated infection model assessed as reduction in kidney tissue fungal burden at 10 mg/kg/day, iv for 5 days administered 24 hrs postinfection measured after 24 hrs post treatment relative to control; format: functional, organism-based
Pichia kudriavzevii [29] = experiment: Antifungal activity against Candida krusei FMR9729 infected OF1 mouse disseminated infection model assessed as reduction in kidney tissue fungal burden at 20 mg/kg/day, iv for 5 days administered 24 hrs postinfection measured after 24 hrs post treatment relative to control; format: functional, organism-based
Pichia kudriavzevii [30] = experiment: Antifungal activity against Candida krusei FMR9729 infected OF1 mouse disseminated infection model assessed as reduction in kidney tissue fungal burden at 40 mg/kg/day, po for 5 days administered 24 hrs postinfection measured after 24 hrs post treatment relative to control; format: functional, organism-based
Pichia kudriavzevii [31] = experiment: Antifungal activity against Candida krusei FMR9729 infected OF1 mouse disseminated infection model assessed as reduction in kidney tissue fungal burden at 60 mg/kg/day, po for 5 days administered 24 hrs postinfection measured after 24 hrs post treatment relative to control; format: functional, organism-based
Pichia kudriavzevii [32] = experiment: Antifungal activity against Candida krusei FMR9729 infected OF1 mouse disseminated infection model assessed as reduction in spleen tissue fungal burden at 10 mg/kg/day, iv for 5 days administered 24 hrs postinfection measured after 24 hrs post treatment relative to control; format: functional, organism-based
Pichia kudriavzevii [33] = experiment: Antifungal activity against Candida krusei FMR9729 infected OF1 mouse disseminated infection model assessed as reduction in spleen tissue fungal burden at 20 mg/kg/day, iv for 5 days administered 24 hrs postinfection measured after 24 hrs post treatment relative to control; format: functional, organism-based
Pichia kudriavzevii [34] = experiment: Antifungal activity against Candida krusei FMR9729 infected OF1 mouse disseminated infection model assessed as reduction in spleen tissue fungal burden at 40 mg/kg/day, po for 5 days administered 24 hrs postinfection measured after 24 hrs post treatment relative to control; format: functional, organism-based
Pichia kudriavzevii [35] = experiment: Antifungal activity against Candida krusei FMR9729 infected OF1 mouse disseminated infection model assessed as reduction in spleen tissue fungal burden at 60 mg/kg/day, po for 5 days administered 24 hrs postinfection measured after 24 hrs post treatment relative to control; format: functional, organism-based
Pichia kudriavzevii [36] = experiment: Antifungal activity against 5 x 10^7 CFU Candida krusei FMR9728 infected OF1 mouse disseminated infection model assessed as prolongation of mouse survival at 10 mg/kg/day, iv for 5 days administered 24 hrs postinfection measured daily for 15 days; format: functional, organism-based
Pichia kudriavzevii [37] = experiment: Antifungal activity against 5 x 10^7 CFU Candida krusei FMR9728 infected OF1 mouse disseminated infection model assessed as prolongation of mouse survival at 20 mg/kg/day, iv for 5 days administered 24 hrs postinfection measured daily for 15 days; format: functional, organism-based
Pichia kudriavzevii [38] = experiment: Antifungal activity against 5 x 10^7 CFU Candida krusei FMR9728 infected OF1 mouse disseminated infection model assessed as prolongation of mouse survival at 40 mg/kg/day, po for 5 days administered 24 hrs postinfection measured daily for 15 days; format: functional, organism-based

CC[C@@H]([C@H](C)O)n1ncn(-c2ccc(N3CCN(c4ccc(OC[C@@H]5CO[C@@](Cn6cncn6)(c6ccc(F)cc6F)C5)cc4)CC3)cc2)c1=O [POSACONAZOLE]
active: Activity (Pichia kudriavzevii [1]) | Activity (Pichia kudriavzevii [2]) | Activity (Pichia kudriavzevii [3]) | Activity (Pichia kudriavzevii [4]) | Activity (Pichia kudriavzevii [5]) | Activity (Pichia kudriavzevii [6]) | Activity (Pichia kudriavzevii [7]) | Activity (Pichia kudriavzevii [8]) | Activity (Pichia kudriavzevii [9]) | Activity (Pichia kudriavzevii [10]) | Activity (Pichia kudriavzevii [11]) | Activity (Pichia kudriavzevii [12])
2 µg/mL: MFC (Pichia kudriavzevii [14])
0.25 µg/mL: MIC50 (Pichia kudriavzevii [14])
1 µg/mL: MFC (Pichia kudriavzevii [13])
0.125 µg/mL: MIC50 (Pichia kudriavzevii [13])

C[C@@H](c1ncncc1F)[C@](O)(Cn1cncn1)c1ccc(F)cc1F [VORICONAZOLE]
16 µg/mL: MFC (Pichia kudriavzevii [13])
0.125 µg/mL: MIC50 (Pichia kudriavzevii [13])
active: Activity (Pichia kudriavzevii [15]) | Activity (Pichia kudriavzevii [16]) | Activity (Pichia kudriavzevii [17]) | Activity (Pichia kudriavzevii [18]) | Activity (Pichia kudriavzevii [19]) | Activity (Pichia kudriavzevii [22]) | Activity (Pichia kudriavzevii [23]) | Activity (Pichia kudriavzevii [26]) | Activity (Pichia kudriavzevii [27]) | Activity (Pichia kudriavzevii [31]) | Activity (Pichia kudriavzevii [35]) | Activity (Pichia kudriavzevii [36]) | Activity (Pichia kudriavzevii [37]) | Activity (Pichia kudriavzevii [38])
inactive: Activity (Pichia kudriavzevii [20]) | Activity (Pichia kudriavzevii [21]) | Activity (Pichia kudriavzevii [24]) | Activity (Pichia kudriavzevii [25]) | Activity (Pichia kudriavzevii [28]) | Activity (Pichia kudriavzevii [29]) | Activity (Pichia kudriavzevii [30]) | Activity (Pichia kudriavzevii [32]) | Activity (Pichia kudriavzevii [33]) | Activity (Pichia kudriavzevii [34])
> 16 µg/mL: MFC (Pichia kudriavzevii [14])
0.25 µg/mL: MIC50 (Pichia kudriavzevii [14])
